Measured values from patent US7538252B2, “Drug design for tubulin inhibitors, compositions, and methods of treatment thereof” (BiPar Sciences, Inc., priority 2006, dated 2009).

Experiments:
TNF-alpha mRNA = TNF-alpha mRNA level in LPS-stimulated PU5-1.8 macrophages (Northern blot); format: cell-based, murine
Method: This example provides an assay that can be used to screen compounds of Formula I for their ability to reduce the expression of cytokines (e.g., TNF-alpha) in a mammal.
The murine macrophage PU5-1.8 cell line is purchased from the American Type Culture Collection (ATCC, Rockville, Md.). Cells are grown in DMEM medium supplemented with […] sodium pyruvate, 0.1 mM nonessential amino acids, 2 mM glutamine and 5% fetal bovine serum (Life Technologies, Staten Island, N.Y.). Cells are maintained in a humidified atmosphere of 5% CO2-95% air at 37° C. Cells are passaged twice weekly by firmly tapping the side of the flask to dislodge the adherent cells. Both non-adherent and adherent cells are passaged. Exponentially growing cells are seeded at 5×10^5/mL, 4 mL per 60-mm dish 24 h prior to the experiment. Test compounds are delivered in 1 mL volumes of the medium added to each dish at the start of the experiment. All dishes are incubated at 37° C. in 5% CO2-95% air for 3 h.
The Tumor Necrosis Factor (TNF-alpha) cDNA is obtained from the ATCC (Rockville, Md.). […]
Hybridized bands are quantified by analyzing the images obtained by using a video densitometer (Applied Imaging Corporation, Santa Clara, Calif.). […]
Treatment of PU5-1.8 murine macrophages with LPS (100 ng/mL) for 3 h results in a significant increase (>7 fold) in the level of TNF-alpha mRNA as determined by Northern blot analysis. […]

HeLa cells = assay: TUNEL apoptosis assay with flow cytometry; format: cell-based; conditions: FIG. 7, compared to control DIPE
Excerpt: Programmed cell death (apoptosis) is an important homeostatic mechanism in the immune and other systems. The phenomenon of nuclear disintegration during apoptosis can be used as a marker to detect cells undergoing this process. While a variety of methods are available to detect apoptotic cells the TUNEL assay allows the rapid phenotypic identification of individual apoptotic cells using flow cytometry (FACS). Terminal transferase dUTP nick end labeling (TUNEL) is a common method for detecting DNA fragmentation that results from apoptosis. The assay based on the presence of nicks in the DNA that can be identified by terminal transferase, an enzyme that will catalyze the addition of dUTPs that are secondarily labeled with a marker. It may also label cells undergoing necrosis or cells that have suffered severe DNA damage.
Hela cells were obtained from ATCC. For DNA content analysis, 2×10^5 cells were washed twice with PBS and fixed in 70% ethanol. Cells were treated with 100 units/mL RNase A for 20 minutes at 37° C., resuspended in cold PBS containing Alexa Fluor® 405 fluorescent stain (Invitrogen) according to the manufacturer's protocol. Cells were analyzed by flow cytometry to characterize the cell cycle. […]

HCT116 and Hela cells = assay: Cell cycle analysis by flow cytometry; format: cell-based; conditions: FIG. 6, compared to control DIPE
Method: HCT116 and Hela cells were obtained from ATCC. For DNA content analysis, 2×10^5 cells were washed twice with PBS and fixed in 70% ethanol. Cells were treated with 100 units/mL RNase A for 20 minutes at 37° C., resuspended in cold PBS containing Alexa Fluor® 405 fluorescent stain (Invitrogen) according to the manufacturer's protocol. Cells were analyzed by flow cytometry.
For DNA replication analysis, 2×10^5 cells were incubated with 50 μmol/L bromodeoxyuridine (BrdUrd) for 30 minutes. Cells were fixed in 70% ethanol and BrdUrd incorporation was determined by flow cytometric analysis using an anti-BrdUrd-FITC antibody (Becton Dickinson, Franklin Lakes, N.J.) according to the manufacturer's protocol. To assess the degree of G2/M checkpoint, mitotic cells were detected by flow cytometry using the mitosis-specific antibody GF-7. Fixed cells were incubated for 30 minutes with GF7-phycoerythrin (PE) antibody (BD Biosciences Pharmingen), washed with PBS and analyzed by flow cytometry. FIG. 6 compares the results obtained with DIPE and formula IIIB.

SMILES	inhibition of TNF-alpha mRNA accumulation (TNF-alpha mRNA; 10 μM added to LPS (100 ng/mL) treated cultures, 3 h) [%]	effect on TNF-alpha mRNA expression (TNF-alpha mRNA; 10 μM, cells without LPS)	induction of apoptosis (HeLa cells)	cell-cycle arrest (HCT116 and Hela cells)
COc1cc2c(c(OC)c1OC)-c1ccc(OC)c(=O)cc1[C@@H](NC(C)=O)CC2 [colchicine]	68	no effect		
COc1ccc(Oc2c(I)cc(C(C)=O)cc2I)cc1N [Formula IIIB, 1-(4-(3-amino-4-methoxyphenoxy)-3,5-diiodophenyl)ethanone]			induction of apoptosis	cell-cycle arrest
